“And” between values parts separate entries of the source, which are not always exact repeats. Equal entries are not always repeated.
Columns and labels:
[1] = system: α1,3-L-fucosyltransferase of the soluble fraction of human ovarian tumor; test: Assay of α1,3-fucosyltransferase with synthetic acceptors, partially purified enzyme of ovarian tumor soluble fraction; assay type: biochemical; conditions: for [14C] Fucose Incorporated (CPM): acceptor 3.0 mM, 37° C. 18 h
Protocol: (§1) An incubation mixture contained 50 mM HEPES-NaOH, pH 7.5, 5 mM MnC12, 7 mM ATP, 3 mM NaN3, the acceptor 0.3 mM (for serum enzyme) or 3.0 mM (for tumor enzyme), 0.125 μCi of GDP-[U-^14 C] Fuc (Sp. Act. 216 mCi/mmol) and enzyme in a total volume of 0.10 ml; the control incubation mixture had everything except the acceptor. At the end of incubation at 37° C. for 18 h, the mixture was diluted with 1 ml water and passed through Dowex-1-C1 column (1 ml in a Pasteur pipet). The column was washed twice with 1 ml water; the breakthrough and wash, which contained the [^14 C] fucosylated neutral acceptor, were collected together in a scintillation vial and counted for radioactivity using the scintillation coctail 3a70 (Research Products International, Mount Prospects, Ill.) and Beckman LS9000. The Dowex column was then eluted successively with 3 ml each of 0.1M and 0.2M NaCl; these eluates which contained the [^14 C] fucosylated sulfated acceptors, were counted for radioactivity as before. Corrections were made by subtracting the radioactivity in the water and NaCl eluates of the control incubation mixture from the corresponding test fractions. The duplicate runs of samples gave almost identical values, the difference being <5%.
As shown in the scheme set forth in FIG. 2, the α-L-fucosidase-free extract of the tissue (40 g), after concentration by 80% (NH4)2 SO4 precipitation was fractionated on bovine IgG glycopep-Sepharose in batches of 25 ml. After washing the column with the equilibration buffer, the bound enzyme was eluted with 1 M NaCl in the same buffer. The protein positive fractions were pooled and processed as shown in the scheme 2.0 ml of the above preparation was loaded on a Sephacryl S-200 column (Superfine:2.6 cm×88.0 cm) equilibrated at 4° C. with 50 mM Tris-HC1, pH 7.0 containing 0.15M NaCl and 0.1% Triton X-100 and eluted with the same buffer. Fractions of 3.0 ml were collected. The fucosyltransferase activity was located in the effluent fractions, by assaying first every 5th fraction and then obtaining the activity profile by assaying the alternate fractions in that range, using 2'-fucosyl LacNAc as the acceptor. […] Its elution position, which is slightly later than BSA, run separately on the same column, indicates its molecular weight as <67,000 daltons. […] The enzyme has been purified 66 fold over the soluble extract with a recovery of 6.2%. The enzyme at this stage lost its activity either kept frozen at -20° C. or left at 4° C. for more than a week. However, the enzyme at the end of the previous step was fairly stable for at least two months at 4° C. So this preparation of enzyme was used in acceptor ability comparison studies.
When α1,3-fucosyltransferase activity of the partially purified enzyme preparation from the soluble portion of ovarian tumor was measured and compared with the activity of other acceptors, the following results were obtained. 2'-methyl LacNAc, LacNAc and Galβ1, 3GlcNAc were respectively 100.0%, 60.6% and 565.5% active, indicating the presence of both α1,3 and α1,4 fucosyltransferase activities in this preparation.

[2] = system: α1,3-L-fucosyltransferase of the particulate fraction of ovarian tumor; test: Assay of α1,3-fucosyltransferase with synthetic acceptors, ovarian tumor particulate fraction; assay type: biochemical, human; conditions: for [14C] Fucose Incorporated (CPM): acceptor 3.0 mM, 37° C. 18 h
Protocol: FIG. 2 The scheme for the preparation of the particulate and soluble fractions of human ovarian tumor.
as §1
This finding is quite different from what we found with the soluble fraction, where α1,4-fucosyltransferase activity seems to be greater than α1,3-fucosyltransferase activity. […] The different nature of the above enzymes was made further clear, when sulfated derivatives of LacNAc was tested as acceptors.

[3] = molecular target: T1, serum α1,3-L-fucosyltransferase (Homo sapiens, UniProt P51993); test: Assay of α1,3-fucosyltransferase with various synthetic acceptors, ovarian cancer sera as enzyme source; assay type: biochemical; conditions: for [14C] Fucose Incorporated (CPM): acceptor 0.3 mM, 37° C. 18 h
T1 construct: Sera were collected from healthy females and ovarian cancer patients; from tissue; host or cells: blood serum of ovarian cancer patients and healthy females
T1 sequence (P51993 35-359 limits assumed): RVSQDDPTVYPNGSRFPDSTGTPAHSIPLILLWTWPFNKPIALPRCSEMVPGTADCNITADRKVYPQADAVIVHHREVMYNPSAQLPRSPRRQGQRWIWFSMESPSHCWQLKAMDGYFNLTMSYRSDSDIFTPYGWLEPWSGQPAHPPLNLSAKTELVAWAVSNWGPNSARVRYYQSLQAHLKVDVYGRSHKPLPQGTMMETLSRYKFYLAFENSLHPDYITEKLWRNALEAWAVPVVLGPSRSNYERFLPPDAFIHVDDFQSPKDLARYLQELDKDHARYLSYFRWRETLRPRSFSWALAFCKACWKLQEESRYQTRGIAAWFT
Protocol: Sera were collected from healthy females and ovarian cancer patients admitted to Roswell Park Cancer Institute in Buffalo, N.Y., USA. Ovarian tumor tissues were obtained during surgical procedures from patients with ovarian cancer. Both sera and tissues were stored frozen at -70° C. until use.
as §1
The activity of serum α1,3-fucosyltransferase was measured with the specific substrate 2'-methyl LacNAc and compared with the ability of several other synthetic substrates to act as an acceptor of fucose.
When the structure of the acceptor 2'-methyl LacNAc was modified by replacing the methyl group with sulfate group in C-2', 3', 6' or 6 position and tested their ability to act as the acceptor of fucose, the following novel findings emerged. […] The β-benzyl glycoside of 3' sulfo LacNAc was quite active (168.4%) but less than the parent compound.

[4] = 2'-methyl LacNAc = 100, listed as 3'-Sulfo LacNAc
[5] = 2'-methyl LacNAc = 100, listed as 3'-sulfo LacNAc

Relative Percent ([1]; 2'-methyl LacNAc = 100) [%]	Relative Percent [1, 4] [%]	Relative Percent [1, 5]	[14C] Fucose Incorporated (CPM) [1] [CPM]	Relative Percent ([2]; 2'-methyl LacNAc = 100) [%]	Relative Percent [2, 4] [%]	Relative Percent [2, 5] [%]	[14C] Fucose Incorporated (CPM) [2] [CPM]	Relative Percent ([3]; 2'-methyl LacNAc = 100) [%]	Relative Percent [3, 4] [%]	Relative Percent [3, 5] [%]	Relative Percent ([3]; 2'-methyl LacNAc = 100, listed as 3'-sulfo-LacNAc) [%]	[14C] Fucose Incorporated (CPM) [3] [CPM]	SMILES
447.1	447	447% and 447.1%	33049	39.0	39	39.0	18793	340.8	340.8	340.8	340	5894	CC(=O)N[C@H]1C(O)O[C@H](CO)[C@@H](O[C@@H]2O[C@H](CO)[C@H](O)[C@H](OS(=O)(=O)O)[C@H]2O)[C@@H]1O (stereo partly drawn) [3'-Sulfo-LacNAc, SODIUM β-D-GALACTOPYRANOSYL 3-SULFATE-(1→4)-2-ACETAMIDO-2-DEOXY-D-GLUCOPYRANOSE]
100			7392	100			48252					1730	CO[C@H]1[C@H](O[C@H]2[C@H](O)[C@@H](NC(C)=O)C(O)O[C@@H]2CO)O[C@H](CO)[C@H](O)[C@@H]1O (stereo partly drawn) [2'-methyl LacNAc]
